{"source": "paper PMC11842588", "about": "“A first-in-class selective inhibitor of ERK1/2 and ERK5 overcomes drug resistance with a single-molecule strategy” (Signal Transduction and Targeted Therapy, 2025)", "assay_in_all_cases": "Kinase profiling", "assay_type_in_all_cases": "biochemical", "key": {"ACTR2(h)": {"molecular_target": "T1, ACTR2(h) (Homo sapiens, UniProt P27037)", "T1 construct": "purchased Eurofins Cerep SA (KinaseProfiler)", "method": "(§1) 380 kinases inhibitory activities of SKLB-D18 were conducted by Eurofins Cerep SA. The result was illustrated by kinase tree (http://www.kinhub.org/kinmap/)."}, "ALK(h)": {"molecular_target": "T2, ALK(h) (Homo sapiens, UniProt Q9UM73)", "T2 construct": "purchased Eurofins Cerep SA (KinaseProfiler)", "method": "as §1"}, "Aurora-C(h)": {"molecular_target": "T3, Aurora-C(h) (Homo sapiens, UniProt Q9UQB9)", "T3 construct": "purchased Eurofins Cerep SA (KinaseProfiler)", "method": "as §1"}, "Bmx(h)": {"molecular_target": "T4, Bmx(h) (Homo sapiens, UniProt P51813)", "T4 construct": "purchased Eurofins Cerep SA (KinaseProfiler)", "method": "as §1"}, "CDK16/cyclinY(h)": {"molecular_target": "T5, CDK16/cyclinY(h) (Homo sapiens, UniProt Q00536)", "T5 construct": "purchased Eurofins Cerep SA (KinaseProfiler)", "method": "as §1"}, "CDKL4(h)": {"molecular_target": "T6, CDKL4(h) (Homo sapiens, UniProt Q5MAI5)", "T6 construct": "purchased Eurofins Cerep SA (KinaseProfiler)", "method": "as §1"}, "CK2α2(h)": {"molecular_target": "T7, CK2α2(h) (Homo sapiens, UniProt P19784)", "T7 construct": "purchased Eurofins Cerep SA (KinaseProfiler)", "method": "as §1"}, "CLK3(h)": {"molecular_target": "T8, CLK3(h) (Homo sapiens, UniProt P49761)", "T8 construct": "purchased Eurofins Cerep SA (KinaseProfiler)", "T8 sequence (P49761 whole entry)": "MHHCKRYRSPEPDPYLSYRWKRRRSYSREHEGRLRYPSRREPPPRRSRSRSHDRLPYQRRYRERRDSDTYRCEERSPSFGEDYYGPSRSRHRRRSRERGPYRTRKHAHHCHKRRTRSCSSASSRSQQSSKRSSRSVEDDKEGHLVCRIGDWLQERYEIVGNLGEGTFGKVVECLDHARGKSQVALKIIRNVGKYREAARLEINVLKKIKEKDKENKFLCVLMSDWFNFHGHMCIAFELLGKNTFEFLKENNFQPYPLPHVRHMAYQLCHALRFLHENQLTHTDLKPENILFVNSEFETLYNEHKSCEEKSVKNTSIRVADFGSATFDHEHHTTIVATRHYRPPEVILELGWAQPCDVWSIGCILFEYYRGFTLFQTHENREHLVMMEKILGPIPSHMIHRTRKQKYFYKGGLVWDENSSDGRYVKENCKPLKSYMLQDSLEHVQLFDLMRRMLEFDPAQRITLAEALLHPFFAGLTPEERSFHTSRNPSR", "method": "as §1"}, "CaMKIV(h)": {"molecular_target": "T9, CaMKIV(h) (Homo sapiens, UniProt Q16566)", "T9 construct": "purchased Eurofins Cerep SA (KinaseProfiler)", "method": "as §1"}, "DAPK1(h)": {"molecular_target": "T10, DAPK1(h) (Homo sapiens, UniProt P53355)", "T10 construct": "purchased Eurofins Cerep SA (KinaseProfiler)", "method": "as §1"}, "DYRK1B(h)": {"molecular_target": "T11, DYRK1B(h) (Homo sapiens, UniProt Q9Y463)", "T11 construct": "purchased Eurofins Cerep SA (KinaseProfiler)", "T11 sequence (Q9Y463 whole entry)": "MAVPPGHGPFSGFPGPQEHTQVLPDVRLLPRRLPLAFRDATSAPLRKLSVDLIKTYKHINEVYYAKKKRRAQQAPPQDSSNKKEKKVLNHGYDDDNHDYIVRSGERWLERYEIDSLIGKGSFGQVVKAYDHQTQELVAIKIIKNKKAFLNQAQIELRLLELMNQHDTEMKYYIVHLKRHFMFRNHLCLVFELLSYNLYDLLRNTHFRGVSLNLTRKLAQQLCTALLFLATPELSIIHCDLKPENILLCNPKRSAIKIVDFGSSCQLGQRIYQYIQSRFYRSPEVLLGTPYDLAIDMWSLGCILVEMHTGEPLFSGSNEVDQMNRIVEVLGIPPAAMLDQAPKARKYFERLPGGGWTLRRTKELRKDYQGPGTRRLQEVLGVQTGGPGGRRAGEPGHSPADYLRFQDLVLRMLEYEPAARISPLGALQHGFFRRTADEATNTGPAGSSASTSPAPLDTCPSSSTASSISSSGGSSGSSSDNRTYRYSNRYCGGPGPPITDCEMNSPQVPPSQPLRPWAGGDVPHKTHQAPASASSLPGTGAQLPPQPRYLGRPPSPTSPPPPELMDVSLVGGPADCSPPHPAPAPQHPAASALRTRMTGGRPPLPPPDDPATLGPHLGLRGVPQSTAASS", "method": "as §1"}, "DYRK2(h)": {"molecular_target": "T12, DYRK2(h) (Homo sapiens, UniProt Q92630)", "T12 construct": "purchased Eurofins Cerep SA (KinaseProfiler)", "method": "as §1"}, "EphB1(h)": {"molecular_target": "T13, EphB1(h) (Homo sapiens, UniProt P54762)", "T13 construct": "purchased Eurofins Cerep SA (KinaseProfiler)", "method": "as §1"}, "Fer(h)": {"molecular_target": "T14, Fer(h) (Homo sapiens, UniProt P16591)", "T14 construct": "purchased Eurofins Cerep SA (KinaseProfiler)", "method": "as §1"}, "GRK2(h)": {"molecular_target": "T15, GRK2(h) (Homo sapiens, UniProt P25098)", "T15 construct": "purchased Eurofins Cerep SA (KinaseProfiler)", "T15 sequence (P25098 whole entry)": "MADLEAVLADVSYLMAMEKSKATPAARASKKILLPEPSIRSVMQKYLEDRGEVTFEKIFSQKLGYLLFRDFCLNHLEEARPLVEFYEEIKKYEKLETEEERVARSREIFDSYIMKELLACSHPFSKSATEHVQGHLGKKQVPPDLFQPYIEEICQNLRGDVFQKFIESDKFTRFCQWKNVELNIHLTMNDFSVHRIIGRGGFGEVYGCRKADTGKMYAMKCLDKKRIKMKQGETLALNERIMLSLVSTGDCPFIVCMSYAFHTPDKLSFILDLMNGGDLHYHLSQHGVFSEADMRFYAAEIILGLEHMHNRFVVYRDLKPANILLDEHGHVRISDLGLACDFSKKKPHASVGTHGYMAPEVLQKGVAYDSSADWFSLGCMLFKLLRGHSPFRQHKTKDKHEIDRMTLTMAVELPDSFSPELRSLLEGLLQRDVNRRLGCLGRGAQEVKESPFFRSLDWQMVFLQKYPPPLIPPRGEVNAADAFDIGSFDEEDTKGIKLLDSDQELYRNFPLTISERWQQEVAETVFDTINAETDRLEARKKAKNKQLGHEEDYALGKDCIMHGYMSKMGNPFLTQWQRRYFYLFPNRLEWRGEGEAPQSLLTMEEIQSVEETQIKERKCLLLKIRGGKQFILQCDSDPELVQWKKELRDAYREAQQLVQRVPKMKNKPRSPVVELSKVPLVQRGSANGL", "method": "as §1"}, "GRK6(h)": {"molecular_target": "T16, GRK6(h) (Homo sapiens, UniProt P43250)", "T16 construct": "purchased Eurofins Cerep SA (KinaseProfiler)", "method": "as §1"}, "IKKε(h)": {"molecular_target": "T17, IKKε(h) (Homo sapiens, UniProt Q14164)", "T17 construct": "purchased Eurofins Cerep SA (KinaseProfiler)", "method": "as §1"}, "JAK1(h)": {"molecular_target": "T18, JAK1(h) (Homo sapiens, UniProt P23458)", "T18 construct": "purchased Eurofins Cerep SA (KinaseProfiler)", "method": "as §1"}, "JAK2(h)": {"molecular_target": "T19, JAK2(h) (Homo sapiens, UniProt O60674)", "T19 construct": "purchased Eurofins Cerep SA (KinaseProfiler)", "T19 sequence (O60674 whole entry)": "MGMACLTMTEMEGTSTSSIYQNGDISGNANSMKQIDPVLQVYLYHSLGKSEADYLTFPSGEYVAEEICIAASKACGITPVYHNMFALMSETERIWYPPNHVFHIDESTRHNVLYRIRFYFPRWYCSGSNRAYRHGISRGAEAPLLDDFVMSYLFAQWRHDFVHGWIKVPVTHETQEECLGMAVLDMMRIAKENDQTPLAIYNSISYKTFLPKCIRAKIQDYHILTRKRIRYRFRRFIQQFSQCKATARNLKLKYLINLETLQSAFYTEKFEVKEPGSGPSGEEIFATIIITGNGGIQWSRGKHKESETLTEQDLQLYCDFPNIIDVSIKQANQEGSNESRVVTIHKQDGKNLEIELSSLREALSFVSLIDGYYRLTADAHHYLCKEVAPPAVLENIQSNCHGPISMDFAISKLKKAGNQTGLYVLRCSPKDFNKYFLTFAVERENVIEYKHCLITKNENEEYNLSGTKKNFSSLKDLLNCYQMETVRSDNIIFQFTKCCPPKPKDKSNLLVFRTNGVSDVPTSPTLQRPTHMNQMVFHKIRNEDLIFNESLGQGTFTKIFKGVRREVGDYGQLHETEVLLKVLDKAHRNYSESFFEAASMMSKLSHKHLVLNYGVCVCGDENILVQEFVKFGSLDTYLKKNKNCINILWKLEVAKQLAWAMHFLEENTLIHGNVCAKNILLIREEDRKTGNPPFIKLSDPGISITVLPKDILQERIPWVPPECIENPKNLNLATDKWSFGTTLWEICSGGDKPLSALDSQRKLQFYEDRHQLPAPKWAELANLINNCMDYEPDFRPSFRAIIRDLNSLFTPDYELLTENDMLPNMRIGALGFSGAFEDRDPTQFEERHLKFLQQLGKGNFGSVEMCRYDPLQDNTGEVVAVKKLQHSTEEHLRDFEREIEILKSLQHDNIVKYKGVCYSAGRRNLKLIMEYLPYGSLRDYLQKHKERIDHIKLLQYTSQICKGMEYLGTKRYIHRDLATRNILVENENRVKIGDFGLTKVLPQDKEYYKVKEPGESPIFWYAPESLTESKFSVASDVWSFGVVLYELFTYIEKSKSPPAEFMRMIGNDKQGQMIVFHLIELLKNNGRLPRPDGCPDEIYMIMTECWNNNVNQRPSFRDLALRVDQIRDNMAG", "method": "as §1"}, "MAPKAP-K2(h)": {"molecular_target": "T20, MAPKAP-K2(h) (Homo sapiens, UniProt P49137)", "T20 construct": "purchased Eurofins Cerep SA (KinaseProfiler)", "method": "as §1"}, "MSK1(h)": {"molecular_target": "T21, MSK1(h) (Homo sapiens, UniProt O75582)", "T21 construct": "purchased Eurofins Cerep SA (KinaseProfiler)", "method": "as §1"}, "MST1(h)": {"molecular_target": "T22, MST1(h) (Homo sapiens, UniProt Q13043)", "T22 construct": "purchased Eurofins Cerep SA (KinaseProfiler)", "T22 sequence (Q13043 whole entry)": "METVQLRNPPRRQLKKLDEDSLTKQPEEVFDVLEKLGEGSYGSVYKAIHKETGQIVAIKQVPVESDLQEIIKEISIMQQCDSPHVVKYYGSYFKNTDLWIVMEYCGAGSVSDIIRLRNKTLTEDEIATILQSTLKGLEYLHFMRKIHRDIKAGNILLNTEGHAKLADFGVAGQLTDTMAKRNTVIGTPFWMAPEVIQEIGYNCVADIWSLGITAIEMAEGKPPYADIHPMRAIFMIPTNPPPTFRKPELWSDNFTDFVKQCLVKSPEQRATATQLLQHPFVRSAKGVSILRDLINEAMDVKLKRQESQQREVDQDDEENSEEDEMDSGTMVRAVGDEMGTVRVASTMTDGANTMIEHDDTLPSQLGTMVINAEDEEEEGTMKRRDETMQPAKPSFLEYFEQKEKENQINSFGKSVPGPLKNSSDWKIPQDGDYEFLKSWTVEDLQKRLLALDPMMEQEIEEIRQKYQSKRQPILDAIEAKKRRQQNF", "method": "as §1"}, "Mer(h)": {"molecular_target": "T23, Mer(h) (Homo sapiens, UniProt Q12866)", "T23 construct": "purchased Eurofins Cerep SA (KinaseProfiler)", "method": "as §1"}, "Mnk1(h)": {"molecular_target": "T24, Mnk1(h) (Homo sapiens, UniProt Q9BUB5)", "T24 construct": "purchased Eurofins Cerep SA (KinaseProfiler)", "method": "as §1"}, "NEK3(h)": {"molecular_target": "T25, NEK3(h) (Homo sapiens, UniProt P51956)", "T25 construct": "purchased Eurofins Cerep SA (KinaseProfiler)", "method": "as §1"}, "NLK(h)": {"molecular_target": "T26, NLK(h) (Homo sapiens, UniProt Q9UBE8)", "T26 construct": "purchased Eurofins Cerep SA (KinaseProfiler)", "method": "as §1"}, "PASK(h)": {"molecular_target": "T27, PASK(h) (Homo sapiens, UniProt Q96RG2)", "T27 construct": "purchased Eurofins Cerep SA (KinaseProfiler)", "method": "as §1"}, "PDHK4(h)": {"molecular_target": "T28, PDHK4(h) (Homo sapiens, UniProt Q16654)", "T28 construct": "purchased Eurofins Cerep SA (KinaseProfiler)", "method": "as §1"}, "[1]": {"molecular_target": "T29, PI3 Kinase (p110a/p85a)(h) (Homo sapiens, UniProt P42336)", "T29 construct": "purchased Eurofins Cerep SA (KinaseProfiler)", "method": "as §1"}, "PIP5K1a(h)": {"molecular_target": "T30, PIP5K1a(h) (Homo sapiens, UniProt Q99755)", "T30 construct": "purchased Eurofins Cerep SA (KinaseProfiler)", "method": "as §1"}, "PRP4(h)": {"molecular_target": "T31, PRP4(h) (Homo sapiens, UniProt Q13523)", "T31 construct": "purchased Eurofins Cerep SA (KinaseProfiler)", "method": "as §1"}, "Pim-1(h)": {"molecular_target": "T32, Pim-1(h) (Homo sapiens, UniProt P11309)", "T32 construct": "purchased Eurofins Cerep SA (KinaseProfiler)", "method": "as §1"}, "PrKX(h)": {"molecular_target": "T33, PrKX(h) (Homo sapiens, UniProt P51817)", "T33 construct": "purchased Eurofins Cerep SA (KinaseProfiler)", "T33 sequence (P51817 whole entry)": "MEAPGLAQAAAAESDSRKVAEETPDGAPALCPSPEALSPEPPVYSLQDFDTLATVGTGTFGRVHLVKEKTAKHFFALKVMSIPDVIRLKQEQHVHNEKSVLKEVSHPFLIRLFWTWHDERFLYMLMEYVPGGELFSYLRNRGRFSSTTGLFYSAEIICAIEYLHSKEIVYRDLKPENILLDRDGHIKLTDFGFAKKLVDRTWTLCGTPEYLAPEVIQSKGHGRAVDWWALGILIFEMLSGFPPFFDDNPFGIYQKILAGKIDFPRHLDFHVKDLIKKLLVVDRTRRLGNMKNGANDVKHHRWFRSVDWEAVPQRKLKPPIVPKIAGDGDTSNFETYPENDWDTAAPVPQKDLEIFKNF", "method": "as §1"}, "STK16(h)": {"molecular_target": "T34, STK16(h) (Homo sapiens, UniProt O75716)", "T34 construct": "purchased Eurofins Cerep SA (KinaseProfiler)", "method": "as §1"}, "TAO1(h)": {"molecular_target": "T35, TAO1(h) (Homo sapiens, UniProt Q7L7X3)", "T35 construct": "purchased Eurofins Cerep SA (KinaseProfiler)", "T35 sequence (Q7L7X3 whole entry)": "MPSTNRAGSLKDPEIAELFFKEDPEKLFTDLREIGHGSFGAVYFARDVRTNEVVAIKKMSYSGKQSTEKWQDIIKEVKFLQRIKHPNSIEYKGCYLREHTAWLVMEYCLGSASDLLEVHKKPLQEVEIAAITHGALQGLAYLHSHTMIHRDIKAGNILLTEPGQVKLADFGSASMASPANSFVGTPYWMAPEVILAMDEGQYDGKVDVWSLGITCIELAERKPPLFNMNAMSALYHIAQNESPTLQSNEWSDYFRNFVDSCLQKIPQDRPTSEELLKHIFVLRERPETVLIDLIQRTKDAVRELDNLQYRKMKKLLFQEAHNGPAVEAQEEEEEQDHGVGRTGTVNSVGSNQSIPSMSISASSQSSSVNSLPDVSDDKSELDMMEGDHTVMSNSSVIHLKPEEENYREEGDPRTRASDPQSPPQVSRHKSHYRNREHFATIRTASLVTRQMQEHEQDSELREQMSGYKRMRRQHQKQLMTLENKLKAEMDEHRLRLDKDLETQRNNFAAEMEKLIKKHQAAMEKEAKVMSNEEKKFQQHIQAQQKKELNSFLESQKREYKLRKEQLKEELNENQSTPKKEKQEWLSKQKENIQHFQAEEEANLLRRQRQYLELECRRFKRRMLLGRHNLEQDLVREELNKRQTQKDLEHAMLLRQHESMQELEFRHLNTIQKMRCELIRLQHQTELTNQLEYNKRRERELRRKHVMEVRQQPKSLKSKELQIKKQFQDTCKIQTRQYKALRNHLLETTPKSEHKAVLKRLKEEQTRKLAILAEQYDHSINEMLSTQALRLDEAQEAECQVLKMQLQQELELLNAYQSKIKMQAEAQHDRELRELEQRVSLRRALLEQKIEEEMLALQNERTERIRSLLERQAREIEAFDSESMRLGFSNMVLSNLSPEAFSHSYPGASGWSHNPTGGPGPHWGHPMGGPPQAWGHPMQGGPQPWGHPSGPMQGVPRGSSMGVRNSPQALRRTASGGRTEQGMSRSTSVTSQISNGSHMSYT", "method": "as §1"}, "TGFBR2(h)": {"molecular_target": "T36, TGFBR2(h) (Homo sapiens, UniProt P37173)", "T36 construct": "purchased Eurofins Cerep SA (KinaseProfiler)", "method": "as §1"}, "TTBK2(h)": {"molecular_target": "T37, TTBK2(h) (Homo sapiens, UniProt Q6IQ55)", "T37 construct": "purchased Eurofins Cerep SA (KinaseProfiler)", "method": "as §1"}, "TrkB(h)": {"molecular_target": "T38, TrkB(h) (Homo sapiens, UniProt Q16620)", "T38 construct": "purchased Eurofins Cerep SA (KinaseProfiler)", "method": "as §1"}, "VRK1(h)": {"molecular_target": "T39, VRK1(h) (Homo sapiens, UniProt Q99986)", "T39 construct": "purchased Eurofins Cerep SA (KinaseProfiler)", "method": "as §1"}, "ZAP-70(h)": {"molecular_target": "T40, ZAP-70(h) (Homo sapiens, UniProt P43403)", "T40 construct": "purchased Eurofins Cerep SA (KinaseProfiler)", "method": "as §1"}, "p70S6Kβ(h)": {"molecular_target": "T41, p70S6Kβ(h) (Homo sapiens, UniProt Q9UBS0)", "T41 construct": "purchased Eurofins Cerep SA (KinaseProfiler)", "method": "as §1"}}, "data": [{"compound": "CN(C)Cc1cccc(Nc2ncc(Cl)c(-c3csc(C(=O)NN4CCOCC4)c3)n2)c1", "note": "[SKLB-D18, 4-(5-chloro-2-((3-((dimethylamino)methyl)phenyl)amino)pyrimidin-4-yl)-N-morpholinothiophene-2-carboxamide]", "values": [{"measurement": "inhibition at 1 µM", "setting": "ACTR2(h)", "value": 10, "unit": "%"}, {"measurement": "inhibition at 1 µM", "setting": "ALK(h)", "value": 13, "unit": "%"}, {"measurement": "inhibition at 1 µM", "setting": "Aurora-C(h)", "value": 66, "unit": "%"}, {"measurement": "inhibition at 1 µM", "setting": "Bmx(h)", "value": 46, "unit": "%"}, {"measurement": "inhibition at 1 µM", "setting": "CDK16/cyclinY(h)", "value": 66, "unit": "%"}, {"measurement": "inhibition at 1 µM", "setting": "CDKL4(h)", "value": 66, "unit": "%"}, {"measurement": "inhibition at 1 µM", "setting": "CK2α2(h)", "value": 65, "unit": "%"}, {"measurement": "inhibition at 1 µM", "setting": "CLK3(h)", "value": 11, "unit": "%"}, {"measurement": "inhibition at 1 µM", "setting": "CaMKIV(h)", "value": 24, "unit": "%"}, {"measurement": "inhibition at 1 µM", "setting": "DAPK1(h)", "value": 67, "unit": "%"}, {"measurement": "inhibition at 1 µM", "setting": "DYRK1B(h)", "value": 67, "unit": "%"}, {"measurement": "inhibition at 1 µM", "setting": "DYRK2(h)", "value": 41, "unit": "%"}, {"measurement": "inhibition at 1 µM", "setting": "EphB1(h)", "value": 23, "unit": "%"}, {"measurement": "inhibition at 1 µM", "setting": "Fer(h)", "value": 16, "unit": "%"}, {"measurement": "inhibition at 1 µM", "setting": "GRK2(h)", "value": 3, "unit": "%"}, {"measurement": "inhibition at 1 µM", "setting": "GRK6(h)", "value": 2, "unit": "%"}, {"measurement": "inhibition at 1 µM", "setting": "IKKε(h)", "value": 64, "unit": "%"}, {"measurement": "inhibition at 1 µM", "setting": "JAK1(h)", "value": 59, "unit": "%"}, {"measurement": "inhibition at 1 µM", "setting": "JAK2(h)", "value": 67, "unit": "%"}, {"measurement": "inhibition at 1 µM", "setting": "MAPKAP-K2(h)", "value": 1, "unit": "%"}, {"measurement": "inhibition at 1 µM", "setting": "MSK1(h)", "value": 17, "unit": "%"}, {"measurement": "inhibition at 1 µM", "setting": "MST1(h)", "value": 45, "unit": "%"}, {"measurement": "inhibition at 1 µM", "setting": "Mer(h)", "value": 69, "unit": "%"}, {"measurement": "inhibition at 1 µM", "setting": "Mnk1(h)", "value": 62, "unit": "%"}, {"measurement": "inhibition at 1 µM", "setting": "NEK3(h)", "value": 63, "unit": "%"}, {"measurement": "inhibition at 1 µM", "setting": "NLK(h)", "value": 26, "unit": "%"}, {"measurement": "inhibition at 1 µM", "setting": "PASK(h)", "value": 13, "unit": "%"}, {"measurement": "inhibition at 1 µM", "setting": "PDHK4(h)", "value": 5, "unit": "%"}, {"measurement": "inhibition at 1 µM", "setting": "[1]", "value": -2, "unit": "%"}, {"measurement": "inhibition at 1 µM", "setting": "PIP5K1a(h)", "value": -5, "unit": "%"}, {"measurement": "inhibition at 1 µM", "setting": "PRP4(h)", "value": 19, "unit": "%"}, {"measurement": "inhibition at 1 µM", "setting": "Pim-1(h)", "value": 37, "unit": "%"}, {"measurement": "inhibition at 1 µM", "setting": "PrKX(h)", "value": 43, "unit": "%"}, {"measurement": "inhibition at 1 µM", "setting": "STK16(h)", "value": 85, "unit": "%"}, {"measurement": "inhibition at 1 µM", "setting": "TAO1(h)", "value": 62, "unit": "%"}, {"measurement": "inhibition at 1 µM", "setting": "TGFBR2(h)", "value": 30, "unit": "%"}, {"measurement": "inhibition at 1 µM", "setting": "TTBK2(h)", "value": 0, "unit": "%"}, {"measurement": "inhibition at 1 µM", "setting": "TrkB(h)", "value": 46, "unit": "%"}, {"measurement": "inhibition at 1 µM", "setting": "VRK1(h)", "value": 16, "unit": "%"}, {"measurement": "inhibition at 1 µM", "setting": "ZAP-70(h)", "value": 1, "unit": "%"}, {"measurement": "inhibition at 1 µM", "setting": "p70S6Kβ(h)", "value": 15, "unit": "%"}]}]}
